# Entries after “also recorded” stand apart in the source; their conditions may differ.
# Assays:
# A549 cells [1] = assay: Adenocarcinoma (A549) subcutaneous tumor model; type: in vivo, SCID mice
# Description: (§1) For human tumor studies, female SCID mice (weighing 20 to 30 g) were purchased from Taconic (White Plains, N.Y.) and allowed to acclimate for 1 week prior to experimentation. For murine tumor and matrigel studies, male CBA and C57B1/6 mice (weighing 25 to 30 g) were purchased form Jackson Labs (Bar Harbor, Me.) and also were allowed to acclimate for 1 week prior to experimentation.
# (§2) Cell cultures and mice were exposed to CO at a concentration of 250 ppm. Briefly, 1% CO in air was mixed with air (21% oxygen) in a stainless steel mixing cylinder and then directed into a 3.70 ft^3 glass exposure chamber at a flow rate of 12 L/min. A CO analyzer (Interscan, Chatsworth, Calif.) was used to measure CO levels continuously in the chamber. CO concentrations were maintained at 250 ppm at all times. Cell cultures and mice were placed in the exposure chamber as required.
# The second model was an adenocarcinoma (A549) model, wherein SCID mice were injected with 1×10^6 A549 cells subcutaneously. These animals were continuously exposed to air or to 250 ppm of CO for a period of six weeks. After the six-week period, the volume of the tumors that developed in the mice was evaluated.
# A549 cells [2] = assay: [3H] thymidine uptake, cGMP dependence of CO-induced growth arrest; type: cell-based, human; details: CO 250 ppm 3 hours before and 24 hours after serum; compared to CO alone
# Protocol: (§3) For [^3H] thymidine incorporation studies, cells were serum-starved overnight and then stimulated with 20% serum containing 5 mCi/ml [^3H] thymidine (New England Nuclear, Boston, Mass.). [^3H] thymidine incorporation was measured by scintillation spectroscopy. CO inhibits the growth of cancer cells in vitro Human and mouse cancer cell lines were used to investigate the effect of CO on growth rates of the cells in culture. Human adenocarcinoma cells (A549), mouse mesothelioma cells (AC29), and A549 and AC29 cells transformed with the heme oxygenase-1 (HO-1) gene (which causes the cells to overexpress HO-1) were exposed to low levels of CO (250 ppm) in culture. Four-day growth curves were generated.
# The cellular mechanisms by which CO causes inhibition were also investigated. To investigate whether CO-induced growth arrest is CGMP dependant, A549 cells were exposed to air, CO, CO+ODQ, or CO+Rp-8-BR. […] The ability of the cells to proliferate was determined by measuring the uptake of [3H] thymidine by the cells (FIG. 5). Cells were exposed to CO (250 ppm) for 3 hours prior to the addition of serum and [3H] thymidine (5 mCi/ml). After the addition of serum and [3H] thymidine, cells were maintained in CO for 24 hours. Cells were then rinsed, fixed and examined by scintillation spectroscopy.
# [3] = test system: mouse mesothelioma cells (AC29); assay: Growth curves of cancer cells in culture exposed to CO; type: cell-based
# Description: (§4) A human adenocarcinoma cell line designated A549, a murine mesothelioma cell line designated AC29, and a human colon cancer cell line designated HCT were utilized for the studies described herein.
# as §2
# as §3, with “Four-day growth curves were generated.” left out
# [4] = test system: VEGF production by A549 cells; assay: VEGF production by ELISA; type: cell-based, human; details: CO plus air for 24 to 48 hours vs air alone
# Protocol: ELISA kits for VEGF levels were purchased from R&D Systems and used according to the manufacturer's directions.
# Whether CO inhibits production of VEGF, a growth factor that contributes to angiogenesis by promoting blood vessel growth, was investigated. A549 cells were exposed to air or CO plus air for 24 to 48 hours in vitro, and VEGF production by A549 cells was detected using an enzyme-linked immunosorbent assay (ELISA).
# [5] = test system: p21, p27, PCNA, Cdc25b, cyclin D1 in A549 cells; assay: Immunoblot of growth/cell cycle proteins; type: cell-based, human
# Protocol: Immunoblotting was performed to investigate protein expression by standard methods known in the art. Antibodies were purchased from Santa Cruz, StressGen and Cell Signaling.
# To investigate CO-induced changes in the expression of various growth/cell cycle proteins in cancer cells, A549 cells were exposed for 24 hours to air or CO (250 ppm). After this period of exposure, cell lysates were collected from the cells and changes in protein expression in the lysates were examined by immunoblot.
# AC29 cells = assay: Mesothelioma (AC29) survival model, cells injected intraperitoneally; type: in vivo, CBA mice
# Description: as §1, §2
# The first was a mesothelioma (AC29) model, wherein CBA mice were injected with 1×10^6 AC29 cells intraperitoneally and monitored for survival when continuously exposed to air or to an atmosphere containing 250 ppm CO for a period of six weeks. […] The survival rate of the CO-exposed mice was increased by greater than 90% as compared to air-exposed mice. The arrow shown in FIG. 3 denotes a time point at which half of the CO-exposed mice were removed from the CO chamber. Half of the mice were removed at that time to determine whether the effects of CO on mouse survival require continuous exposure to CO. A significant number of mice (50%, p<0.02) that were removed from the CO-containing atmosphere remained alive at the end of the experiment, whereas all air treated mice died by day 36. The number of mice in each group was 12 to 20 animals.
# In another experiment, it was shown that CO-exposed mice survived for greater than 65 days (data not shown).
# [6] = test system: Human adenocarcinoma cells (A549); type: cell-based; details: 250 ppm CO
# Description: as §4, §2, §3
# angiogenesis = assay: Matrigel angiogenesis assay, FGF/heparin Matrigel implanted under the skin; type: in vivo, C57/B16 mice
# Description: as §1, §2
# The effect of CO (250 ppm) on angiogenesis was investigated using a Matri gel […] angiogenesis assay. A solubilized basement membrane matrix (Matrigel™) containing 20 ng/ml growth factor (FGF) and heparin was implanted under the skin of C57/B16 mice. The mice were then exposed to air or CO in air for two weeks. After the two-week period, the Matrigel™ was removed and examined.
# In a separate experiment, Matrigel™ deposits containing 20 ng/ml growth factor (FGF) and heparin were implanted under the skin of C57/B16 mice, and the mice were exposed to air or CO (250 ppm) in air for 21 days. Photomicrographs of hematoxylin- and eosin-stained paraffin sections from the resected subcutaneous FGF-Matrigel deposits were prepared. Prominent angiogenesis was evident in deposits from air-exposed mice, as was a front of infiltrating vascular cells organizing into blood filled micro-capillaries (data not shown).
# HTC cells = assay: [3H] thymidine uptake in wild-type and p21-deficient colon cancer cells; type: cell-based, human; details: p21-/- HTC cells versus wild type
# Protocol: as §3
# Wild-type (Wt) HTC cells and HTC cells deficient in p21 (p21−/−), a gene known to control cell growth, were exposed to air or CO to determine whether p21 is involved in CO-induced growth arrest (FIG. 6). As indicated by [^3H] thymidine uptake, CO-induced growth arrest appears less marked in HTC cells that are deficient in p21.
# [7] = test system: A549 cells transformed to overexpress HO-1; assay: A549 HO-1 overexpressing tumor model; type: in vivo, mice; details: 50 μmol/kg s.c., data not shown
# Protocol: The third model was also an A549 model, wherein mice were injected with A549 cells transformed to overexpress HO-1 (HO-1 clones A5 and L1). After the six-week period, the size and volume of tumors that developed in the mice were evaluated. […] Using Western blot analysis, the relative decrease in volume was determined to correlate with a relative decrease in expression of cyclin D1, a protein involved in the regulation of cell growth (data not shown).
smiles,measurement,setting,value
"[C-]#[O+] [CO, carbon monoxide]",tumor volume,A549 cells [1]; CO plus air vs air alone,reduced
same,reduction of tumor volume,"A549 cells [1]; continuous 250 ppm CO for six weeks, compared to air-exposed mice",greater than 50%
same,uptake of [3H] thymidine (proliferation),A549 cells [2],growth arrest
same,reduction in cell number,"[3]; 250 ppm CO, by three days, compared to controls",> 40%
same,proliferation after removal from CO-containing atmosphere,[3]; cultures removed from CO at day 5,proliferate at a normal rate
same,proliferation of AC29 cells,"[3]; six-day growth curve, CO vs air",inhibits the proliferation
same,VEGF production,[4],substantially less VEGF; also recorded: inhibits
same,"expression of p21, p27, PCNA, Cdc25b and cyclin D1",[5]; 250 ppm CO for 24 hours,causes changes in expression
same,expression of p21,"[5]; CO for 4, 8 and 24 hours",causes changes in expression
same,increase of survival rate,"AC29 cells; 250 ppm CO, compared to air-exposed mice",greater than 90%
same,survival,AC29 cells; CO treatment delayed until one week after injection of mesothelioma cells,prolonged the lives; also recorded: prolongs survival
same,survival time,"AC29 cells; another experiment, data not shown",greater than 65 days
same,survival,AC29 cells; continuous 250 ppm CO for six weeks vs air,lived longer; also recorded: prolongs survival
same,mice removed from CO-containing atmosphere alive at end of experiment,"AC29 cells; half of CO-exposed mice removed from chamber, p<0.02, all air treated mice died by day 36",50%
same,toxicity as cause of reduced cell numbers,"[6]; A549 and AC29 cultures, confluency eventually achieved",not due to toxicity
same,reduction in cell number,"[6]; by three days, compared to controls",> 40%
same,cellularity and blood in Matrigel deposits,angiogenesis; 250 ppm CO in air for 21 days,paucity of cellularity and blood
same,angiogenesis in Matrigel deposits,"angiogenesis; 250 ppm CO in air for 21 days, H&E sections",No angiogenesis was evident
same,angiogenesis in Matrigel,"angiogenesis; 250 ppm CO in air for two weeks, data not shown",no new blood vessel growth
same,CO-induced growth arrest ([3H] thymidine uptake),HTC cells,less marked
C=Cc1c2[n-]c(c1C)/C=c1\[n-]/c(c(C)c1C=C)=C\c1[n-]c(c(CCC(=O)O)c1C)/C=c1\[n-]c(c(C)c1CCC(=O)O)=C2.[Sn+4] [tin protoporphyrin],effect on the inhibition of tumor growth by HO-1 overexpression,[7],reversible

# Source: US20040258772A1, “Methods of treating angiogenesis, tumor growth, and metastasis” (priority 2002, published 2004)
